Assay results taken from ChEMBL document CHEMBL4823249, “Discovery of a Pyrimidinedione Derivative as a Potent and Orally Bioavailable Axl Inhibitor” (J Med Chem, 2021).
Calls of active or inactive are those of the source. The calls are words filed in the database; no cut-off is given here.

Key:
CDK6/cyclin D3 = CDK6/cyclin D3 (Homo sapiens, UniProt Q00534); test: Inhibition of recombinant full length human CDK6/CyclinD3C using Rb fragment as substrate incubated for 40 mins in presence of [gamma-33ATP] by scintillation counting based radiometry assay; assay type: protein-complex assay
Chain of CDK6/cyclin D3 (P30281 whole entry, the tested form may be a part): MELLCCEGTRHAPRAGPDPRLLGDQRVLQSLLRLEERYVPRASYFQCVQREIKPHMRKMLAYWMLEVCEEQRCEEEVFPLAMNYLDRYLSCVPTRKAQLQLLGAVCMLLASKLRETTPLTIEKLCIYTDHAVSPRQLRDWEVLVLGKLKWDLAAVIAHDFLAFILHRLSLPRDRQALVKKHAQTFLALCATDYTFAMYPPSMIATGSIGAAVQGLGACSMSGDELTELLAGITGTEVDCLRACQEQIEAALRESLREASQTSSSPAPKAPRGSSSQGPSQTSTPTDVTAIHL
Chain of CDK6/cyclin D3 (Q00534 whole entry, the tested form may be a part): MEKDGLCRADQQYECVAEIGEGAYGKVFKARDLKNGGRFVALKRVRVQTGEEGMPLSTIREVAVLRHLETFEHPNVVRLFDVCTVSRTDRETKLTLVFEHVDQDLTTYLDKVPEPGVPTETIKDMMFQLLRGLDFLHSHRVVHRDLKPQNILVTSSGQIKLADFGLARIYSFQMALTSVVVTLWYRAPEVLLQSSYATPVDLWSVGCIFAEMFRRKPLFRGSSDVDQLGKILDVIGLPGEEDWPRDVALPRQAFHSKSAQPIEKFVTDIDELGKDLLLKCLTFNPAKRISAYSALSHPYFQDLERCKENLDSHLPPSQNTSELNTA

[1] = biological target: Serine/threonine-protein kinase A-Raf (Homo sapiens, UniProt P10398); test: Inhibition of recombinant human A-Raf (273 to end residues) using myelin basic protein as substrate incubated for 40 mins in presence of [gamma-33ATP] by scintillation counting based radiometry assay
NCI-H1299 = test: Inhibition of Gas6-stimulated cell migration in human NCI-H1299 cells at […] after 24 hrs by crystal violet staining based microscopic analysis; assay type: functional; details: dose lower 5.0 µM
[2] = biological target: Cyclin-dependent kinase 1/cyclin B1 (Homo sapiens, UniProt P06493); test: Inhibition of recombinant full length human CDK1/CyclinB using Histone H1 as substrate incubated for 40 mins in presence of [gamma-33ATP] by scintillation counting based radiometry assay; assay type: protein-complex assay
Chain of Cyclin-dependent kinase 1/cyclin B1 (P06493 whole entry): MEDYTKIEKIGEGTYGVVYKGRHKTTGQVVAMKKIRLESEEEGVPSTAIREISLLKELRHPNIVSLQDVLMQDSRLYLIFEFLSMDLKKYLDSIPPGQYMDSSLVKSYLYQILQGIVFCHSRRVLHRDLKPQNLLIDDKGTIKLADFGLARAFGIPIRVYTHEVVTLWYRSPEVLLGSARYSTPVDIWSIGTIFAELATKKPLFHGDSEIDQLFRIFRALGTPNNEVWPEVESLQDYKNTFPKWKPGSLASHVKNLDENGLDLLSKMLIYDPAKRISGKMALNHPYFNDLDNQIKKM
Chain of Cyclin-dependent kinase 1/cyclin B1 (P14635 whole entry, further chain): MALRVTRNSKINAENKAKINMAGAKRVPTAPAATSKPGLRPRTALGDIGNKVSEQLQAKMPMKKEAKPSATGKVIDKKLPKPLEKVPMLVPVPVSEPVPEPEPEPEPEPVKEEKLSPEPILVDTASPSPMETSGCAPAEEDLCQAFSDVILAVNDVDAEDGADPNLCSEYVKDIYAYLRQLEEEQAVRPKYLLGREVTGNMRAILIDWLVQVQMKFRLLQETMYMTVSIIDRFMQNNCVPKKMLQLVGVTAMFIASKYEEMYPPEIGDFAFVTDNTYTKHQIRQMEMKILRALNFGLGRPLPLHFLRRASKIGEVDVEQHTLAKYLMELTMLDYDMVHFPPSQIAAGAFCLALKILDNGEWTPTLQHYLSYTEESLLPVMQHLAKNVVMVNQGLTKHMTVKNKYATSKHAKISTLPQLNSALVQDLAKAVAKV

[3] = AUC(0 to t) in ICR mouse at 3 mg/kg, po measured upto 24 hrs by LC-MS analysis; assay type: ADME, organism-based; parameters: route oral, dose 3 mg/kg, time <=24; details: in vivo
[4] = Half life in Sprague-Dawley rat at 3 mg/kg, po measured upto 24 hrs by LC-MS analysis; assay type: ADME, organism-based; details: in vivo
[5] = biological target: Insulin-like growth factor 1 receptor (Homo sapiens, UniProt P08069); test: Inhibition of human IGF1R (959 to end residues) using KKKSPGEYVNIEFG as substrate after 40 mins in presence of [gamma-33ATP] by scintillation counting based radiometry assay
BT-549 = test: Antiproliferative activity against human BT-549 cells incubated for 72 hrs by SRB or CCK8 assay; assay type: functional, cell-based; details: BT-549, 72 h
CDK12/Cyclin K = CDK12/Cyclin K (Homo sapiens, UniProt Q9NYV4); test: Inhibition of recombinant full length human CDK12/CyclinK using RSRSRSRSRSRSR as substrate incubated for 40 mins in presence of [gamma-33ATP] by scintillation counting based radiometry assay; assay type: protein-complex assay
Ephrin type-A receptor 2 = Ephrin type-A receptor 2 (Homo sapiens, UniProt P29317); test: Inhibition of recombinant human EphA2 (596 to 900 residues) using poly(Glu, Tyr) 4:1 as substrate incubated for 40 mins in presence of [gamma-33ATP] by scintillation counting based radiometry assay
Chain of Ephrin type-A receptor 2 (P29317 whole entry, the tested form may be a part): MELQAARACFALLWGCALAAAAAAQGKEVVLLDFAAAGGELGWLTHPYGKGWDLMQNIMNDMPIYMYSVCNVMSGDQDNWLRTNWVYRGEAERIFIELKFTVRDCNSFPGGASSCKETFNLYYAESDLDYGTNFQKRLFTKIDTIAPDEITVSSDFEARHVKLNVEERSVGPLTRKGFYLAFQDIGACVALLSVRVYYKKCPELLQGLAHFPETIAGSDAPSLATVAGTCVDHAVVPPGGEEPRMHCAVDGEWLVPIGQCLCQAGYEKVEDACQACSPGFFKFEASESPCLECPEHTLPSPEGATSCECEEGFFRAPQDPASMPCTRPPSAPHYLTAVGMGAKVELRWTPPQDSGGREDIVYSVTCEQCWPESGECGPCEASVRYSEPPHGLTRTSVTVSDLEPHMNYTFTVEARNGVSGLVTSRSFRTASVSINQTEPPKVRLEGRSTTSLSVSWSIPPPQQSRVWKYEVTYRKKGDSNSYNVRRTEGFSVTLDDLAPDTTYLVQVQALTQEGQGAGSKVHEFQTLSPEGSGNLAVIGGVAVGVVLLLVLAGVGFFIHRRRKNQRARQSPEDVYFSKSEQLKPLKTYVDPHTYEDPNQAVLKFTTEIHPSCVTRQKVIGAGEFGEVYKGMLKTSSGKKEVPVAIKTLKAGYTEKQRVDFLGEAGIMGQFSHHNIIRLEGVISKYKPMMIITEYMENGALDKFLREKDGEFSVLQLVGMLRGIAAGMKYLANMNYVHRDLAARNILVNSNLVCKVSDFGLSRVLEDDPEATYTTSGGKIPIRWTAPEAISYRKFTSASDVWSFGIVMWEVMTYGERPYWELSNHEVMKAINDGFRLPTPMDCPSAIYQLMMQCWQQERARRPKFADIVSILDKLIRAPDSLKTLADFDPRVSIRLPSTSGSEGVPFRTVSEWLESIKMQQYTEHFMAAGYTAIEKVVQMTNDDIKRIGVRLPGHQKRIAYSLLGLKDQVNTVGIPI

U-87 MG = test: Antitumor activity against human U-87MG cells xenografted in BALB/c nude mouse assessed as tumor growth inhibition at 5 mg/kg, po administered once daily for 14 days by caliper method; assay type: functional, U-87MG ATCC; details: 336 h, time 14 day, read-out: TGI
[6] = biological target: Fibroblast growth factor receptor 1 (Homo sapiens, UniProt P11362); test: Inhibition of recombinant human FGFR1 (456 to 765 residues) using KKKSPGEYVNIEF as substrate incubated for 40 mins in presence of [gamma-33ATP] by radiometric scintillation counting analysis
[7] = biological target: ALK tyrosine kinase receptor (Homo sapiens, UniProt Q9UM73); test: Inhibition of human ALK (1058 to end residues) using KKKSPGEYVNIEFG as substrate incubated for 40 mins in presence of [gamma-33ATP] by scintillation counting based radiometry assay
[8] = biological target: Receptor tyrosine-protein kinase erbB-4 (Homo sapiens, UniProt Q15303); test: Inhibition of recombinant human ERBB4 (706 to 991 residues) using poly(Glu, Tyr) 4:1 as substrate incubated for 40 mins in presence of [gamma-33ATP] by scintillation counting based radiometry assay
Chain of Receptor tyrosine-protein kinase erbB-4 (Q15303 whole entry, the tested form may be a part): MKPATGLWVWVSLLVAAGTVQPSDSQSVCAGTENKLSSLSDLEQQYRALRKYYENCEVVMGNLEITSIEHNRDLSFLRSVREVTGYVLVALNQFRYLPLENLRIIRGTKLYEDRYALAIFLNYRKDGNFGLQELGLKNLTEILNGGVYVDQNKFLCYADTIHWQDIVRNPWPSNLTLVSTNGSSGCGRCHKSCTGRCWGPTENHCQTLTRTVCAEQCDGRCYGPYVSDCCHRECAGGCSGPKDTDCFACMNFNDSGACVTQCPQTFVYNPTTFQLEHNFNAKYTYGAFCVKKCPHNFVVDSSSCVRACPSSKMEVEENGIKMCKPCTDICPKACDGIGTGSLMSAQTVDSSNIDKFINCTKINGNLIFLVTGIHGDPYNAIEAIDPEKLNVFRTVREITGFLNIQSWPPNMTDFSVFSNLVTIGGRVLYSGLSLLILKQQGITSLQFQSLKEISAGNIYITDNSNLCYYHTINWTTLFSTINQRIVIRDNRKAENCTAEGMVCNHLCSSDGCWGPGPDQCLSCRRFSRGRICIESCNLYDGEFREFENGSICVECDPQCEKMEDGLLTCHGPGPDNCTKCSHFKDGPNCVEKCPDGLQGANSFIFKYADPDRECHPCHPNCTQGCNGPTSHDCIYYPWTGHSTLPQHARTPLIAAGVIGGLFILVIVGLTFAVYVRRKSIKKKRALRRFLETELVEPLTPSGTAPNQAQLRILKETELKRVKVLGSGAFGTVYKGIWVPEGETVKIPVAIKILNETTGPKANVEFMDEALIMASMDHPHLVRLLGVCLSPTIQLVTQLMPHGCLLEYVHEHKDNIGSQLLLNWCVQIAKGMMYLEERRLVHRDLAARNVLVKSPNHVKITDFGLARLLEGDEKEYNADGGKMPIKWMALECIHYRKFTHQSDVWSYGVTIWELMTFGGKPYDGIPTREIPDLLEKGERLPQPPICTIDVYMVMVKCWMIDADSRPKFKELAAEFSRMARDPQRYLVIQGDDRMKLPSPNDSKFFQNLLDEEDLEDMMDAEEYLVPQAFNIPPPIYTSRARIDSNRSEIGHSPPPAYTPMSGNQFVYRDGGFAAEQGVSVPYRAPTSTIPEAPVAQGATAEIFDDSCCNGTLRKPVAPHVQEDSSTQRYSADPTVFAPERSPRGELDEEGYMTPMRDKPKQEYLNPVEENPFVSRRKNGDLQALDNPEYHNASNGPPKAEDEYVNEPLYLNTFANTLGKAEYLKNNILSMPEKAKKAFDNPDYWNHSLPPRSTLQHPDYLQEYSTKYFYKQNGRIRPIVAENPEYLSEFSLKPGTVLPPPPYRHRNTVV

[9] = biological target: Hepatocyte growth factor receptor (Homo sapiens, UniProt P08581); test: Inhibition of MET signaling in human EBC1 cells assessed as reduction in phosphorylation of ERK after 2 hrs by Western blotting analysis; assay type: cell-based; details: EBC-1, dose 10-100 nM
[10] = biological target: Tyrosine-protein kinase JAK1 (Homo sapiens, UniProt P23458); test: Inhibition of human JAK1 (866 to end residues) using GEEPLYWSFPAKKK as substrate after 40 mins in presence of [gamma-33ATP] by scintillation counting based radiometry assay
Chain of Tyrosine-protein kinase JAK1 (P23458 whole entry): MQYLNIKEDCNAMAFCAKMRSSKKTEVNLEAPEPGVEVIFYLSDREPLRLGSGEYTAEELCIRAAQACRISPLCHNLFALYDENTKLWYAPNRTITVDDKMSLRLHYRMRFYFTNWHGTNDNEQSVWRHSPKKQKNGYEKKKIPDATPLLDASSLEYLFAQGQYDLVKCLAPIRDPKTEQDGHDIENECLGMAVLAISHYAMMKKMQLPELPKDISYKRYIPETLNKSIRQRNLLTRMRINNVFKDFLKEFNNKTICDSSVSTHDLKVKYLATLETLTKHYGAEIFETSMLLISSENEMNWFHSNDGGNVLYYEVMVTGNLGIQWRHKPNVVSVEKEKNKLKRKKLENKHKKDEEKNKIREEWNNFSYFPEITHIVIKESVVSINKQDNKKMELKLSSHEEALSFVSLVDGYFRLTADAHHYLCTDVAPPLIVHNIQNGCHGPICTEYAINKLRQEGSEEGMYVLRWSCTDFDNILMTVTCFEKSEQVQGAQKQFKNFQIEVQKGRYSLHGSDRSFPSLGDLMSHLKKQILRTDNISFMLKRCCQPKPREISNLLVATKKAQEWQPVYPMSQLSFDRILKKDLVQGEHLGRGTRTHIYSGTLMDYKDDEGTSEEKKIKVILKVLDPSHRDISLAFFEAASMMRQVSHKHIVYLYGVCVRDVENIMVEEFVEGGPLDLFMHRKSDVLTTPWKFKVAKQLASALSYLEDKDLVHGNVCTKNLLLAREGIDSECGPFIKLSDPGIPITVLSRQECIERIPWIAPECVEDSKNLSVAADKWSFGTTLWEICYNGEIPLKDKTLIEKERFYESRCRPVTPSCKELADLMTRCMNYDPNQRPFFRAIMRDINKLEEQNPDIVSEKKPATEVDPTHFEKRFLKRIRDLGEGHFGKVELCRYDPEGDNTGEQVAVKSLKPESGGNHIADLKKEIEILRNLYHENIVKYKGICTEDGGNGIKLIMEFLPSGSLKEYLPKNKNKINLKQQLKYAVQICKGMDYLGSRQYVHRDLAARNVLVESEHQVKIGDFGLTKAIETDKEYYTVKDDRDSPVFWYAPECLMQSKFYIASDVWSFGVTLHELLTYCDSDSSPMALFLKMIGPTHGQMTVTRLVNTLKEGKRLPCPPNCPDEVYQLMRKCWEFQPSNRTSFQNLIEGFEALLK

[11] = biological target: T1, Tyrosine-protein kinase receptor UFO (Mus musculus) (UniProt Q00993); test: Inhibition of AXL in mouse BaF3/TEL-AXL cells assessed as reduction in Gas6-induced phosphorylation of AXL at 0.5 to 50 nM preincubated for 2 hrs followed by Gas6 stimulation for 15 mins by Western blotting analysis; assay type: cell-based; details: dose 0.5-50 nM
T1 sequence (whole entry): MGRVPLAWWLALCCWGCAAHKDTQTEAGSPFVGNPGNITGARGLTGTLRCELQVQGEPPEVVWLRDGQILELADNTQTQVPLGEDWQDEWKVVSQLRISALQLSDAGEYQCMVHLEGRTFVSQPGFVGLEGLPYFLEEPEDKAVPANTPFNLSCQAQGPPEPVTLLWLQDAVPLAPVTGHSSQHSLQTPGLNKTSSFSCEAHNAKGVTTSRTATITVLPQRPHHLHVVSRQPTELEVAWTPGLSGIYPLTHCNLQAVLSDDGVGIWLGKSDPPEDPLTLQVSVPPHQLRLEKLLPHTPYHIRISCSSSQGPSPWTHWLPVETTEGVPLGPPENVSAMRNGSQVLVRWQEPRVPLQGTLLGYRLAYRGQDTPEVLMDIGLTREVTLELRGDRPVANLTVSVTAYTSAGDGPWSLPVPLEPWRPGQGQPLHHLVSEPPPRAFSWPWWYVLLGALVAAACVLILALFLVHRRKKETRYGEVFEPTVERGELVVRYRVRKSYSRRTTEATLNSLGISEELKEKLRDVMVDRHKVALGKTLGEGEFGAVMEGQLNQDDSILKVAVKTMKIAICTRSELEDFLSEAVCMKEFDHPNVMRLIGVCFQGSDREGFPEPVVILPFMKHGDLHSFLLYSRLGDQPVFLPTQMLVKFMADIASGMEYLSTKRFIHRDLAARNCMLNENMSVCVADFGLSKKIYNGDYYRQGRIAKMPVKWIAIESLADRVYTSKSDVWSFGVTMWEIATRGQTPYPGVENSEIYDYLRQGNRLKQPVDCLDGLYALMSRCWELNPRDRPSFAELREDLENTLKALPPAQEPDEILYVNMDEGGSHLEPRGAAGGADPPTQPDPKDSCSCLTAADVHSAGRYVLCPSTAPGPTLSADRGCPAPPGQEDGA

RT-112 = test: Antiproliferative activity against human RT-112 cells incubated for 72 hrs by SRB or CCK8 assay; assay type: functional, cell-based; details: RT-112, 72 h
[12] = biological target: Tyrosine-protein kinase JAK3 (Homo sapiens, UniProt P52333); test: Inhibition of recombinant human JAK3 (781 to end residues) using GGEEEEYFELVKKKK as substrate measured after 40 mins in presence of [gamm33P]ATP by scintillation counting method
[13] = biological target: Tyrosine-protein kinase Mer (Homo sapiens, UniProt Q12866); test: Inhibition of recombinant human MER (557 to 882 residues) using GGMEDIYFEFMGG as substrate incubated for 40 mins in presence of [gamma-33ATP by scintillation counting based radiometry assay

IC50 (CDK6/cyclin D3): > 1000 nM
IC50 [1]: > 1000 nM
IC50 [2]: > 1000 nM
AUC(0-t) at 24 h [3]: 24000 ng·h/mL
half-life [4]: 13.8 h
IC50 [5]: > 1000 nM
IC50 (BT-549): > 10000 nM
IC50 (CDK12/Cyclin K): > 1000 nM
IC50 (Ephrin type-A receptor 2): > 100 nM
IC50 [6]: > 1000 nM
IC50 [7]: > 1000 nM
IC50 [8]: > 1000 nM
inhibition [9]: Dose-Dependent Effect
IC50 [10]: > 1000 nM
inhibition [11]: Active
IC50 [12]: > 1000 nM
IC50 [13]: < 10 nM
SMILES: CC(C)n1cc(C(=O)Nc2ccc(Oc3ccnc(NC(=O)C4CC4)c3)c(F)c2)c(=O)n(-c2ccc(F)cc2)c1=O
inhibition (NCI-H1299): Active
inhibition in vivo at 5 mg/kg (U-87 MG): 62.3%
IC50 (RT-112): > 10000 nM
